One assay relates to HSV-2 (strain 186). As to the kind of experiment: Anti-herpes activity, plaque-reduction assay in Vero cells, HSV-2 (strain 186). In kind it is cell-based. The settings on record: Human alphaherpesvirus 2, 168 h; HSV-2 strain 186, Vero cells, 7 days at 37° C.; read-out: ID50 HSV-2 (concentration of compound causing 50% inhibition of plaque formation). The procedure: (§1) Anti-herpes activity was measured in a plaque-reduction assay (Lopez, C. et al., J. Antimicrob. Agents Chemother., 17, 803 (1980). Confluent monolayers of Vero cells in 6-well plates were infected with 100 plaque forming units of either HSV-1 (strain KOS) or HSV-2 (strain 186). The infected monolayers were incubated at 37° C. for 1 hour and then overlaid with maintenance medium containing 1% agarose and various concentrations of test compounds. The monolayers were incubated for a further 7 days at 37° C., after which the cells were fixed and stained, the plaques were counted, and the concentration of compound causing 50% inhibition of plaque formation was calculated.

The test system of the next assay is HSV-1 (strain KOS). The assay can be described thus: Anti-herpes activity, plaque-reduction assay in Vero cells, HSV-1 (strain KOS). In kind it is cell-based. As to conditions: Human alphaherpesvirus 1, 168 h, 7 days at 37° C., read-out: ID50 HSV-1 (concentration of compound causing 50% inhibition of plaque formation). The procedure:
as §1
(In general: In a plaque reduction assay, fewer plaques than in the control indicate reduced infectivity or spread.)

Converted amounts (≈) assume the structure as drawn.

In the case of `Nc1nc2c(ncn2C[C@]2(CO)C[C@H]2CO)c(=O)[nH]1` (relative stereo), the results for the IC50 with HSV-2 (strain 186) and in the assay on HSV-1 (strain KOS) were 0.42 µg/mL (≈ 1.58 µM) and 0.046 µg/mL (≈ 0.173 µM), respectively.
Consider `Nc1nc2c(ncn2COCCO)c(=O)[nH]1` [Acyclovir, reference compound], for which the IC50 stood at 0.4 µg/mL (≈ 1.78 µM) with HSV-2 (strain 186) and 0.57 µg/mL (≈ 2.53 µM) with HSV-1 (strain KOS).
For the compound `Nc1nc2c(ncn2C[C@]2(CO)C[C@@H]2CO)c(=O)[nH]1` (relative stereo), in the assay with HSV-1 (strain KOS), the IC50 was determined as 10.4 µg/mL (≈ 39.2 µM).
On the same count and under the same terms, under `Nc1ccn(CC2(CO)CC2CO)c(=O)n1` (stereo not shown) stands 120 µg/mL (≈ 533 µM); under `Nc1nc(Cl)c2ncn(CC3(CO)CC3CO)c2n1` (stereo not shown), 34 µg/mL (≈ 120 µM).
The same measure, in the same setting: under `Nc1ncnc2c1ncn2CC1(CO)CC1CO` (stereo not shown) stands 47 µg/mL (≈ 189 µM).
Take `Nc1nc2c(ncn2C[C@]2(CO)C[C@H]2CO)c(=O)[nH]1` [Example 20, (-)-9-[1'S,2'R-bis(hydroxymethyl)cyclopropan-1'yl]methylguanine]: the IC50 with HSV-2 (strain 186) turned out to be 0.24 µg/mL (≈ 0.905 µM); with HSV-1 (strain KOS) it was 0.023 µg/mL (≈ 0.0867 µM).

For the origin of these results see US5342840A, “Cyclopropane derivative” (Ajinomoto Co., Inc., priority 1991, dated 1994).
